Experimental data from patent publication US10676767B2, “Methods and compositions for making ephedrine and related alkaloid compounds” (priority 2015, dated 2020).

Tests used:
[1] = tested on: N-methyltransferase (NMT); test: Standard enzyme assay with purified E. coli-produced NMT, N-methylated product measured by LC-MS; type: biochemical, Ephedra sinica; settings: for acceptance as substrate for N-methylation by NMT (FIG. 3): 1 mM alkaloid substrate, 1 mM SAM, 100 μg/mL purified NMT, 4 h at 37° C., pH 8.5
Protocol: Open reading frames (ORFs) of N-methyltransferase (NMT) enzyme sequences (i.e. SEQ. ID NO: 1 and SEQ. ID NO: 2) were subcloned into Escherichia coli expression vector pET47b (Merck Millipore) in-frame with vector-encoded His-tag for downstream purification purposes. Constructs were transformed into E. coli strains ArcticExpress (Agilent Technologies) or Rosetta (Novagen). Recombinant His-tagged protein production was performed according to standard procedures (Farrow et al. 2013. J. Biol. Chem. 288: 28977) and manufacturer's instructions. Briefly, cultures of E. coli harboring pET47b were grown on an orbital shaker (200 rpm) to log phase in 1 L of LB medium containing gentamicin, streptomycin and kanamycin (Arctic Express) or chloramphenicol and kanamycin (Rosetta). Recombinant His-tagged protein production was initiated by the addition of 1 mM isopropyl β-D-1-thiogalactopyranoside (IPTG). To produce NMT, cultures were grown for 24 h at 15° C.
For purification, bacterial pellets obtained following induction/incubation were resuspened in 10 mL of resuspension buffer (50 mM Tris pH 8.5, 10% v/v glycerol, 1% w/v polyvinylpyrrolidone, 5 mM dithiothreitol) and lysed at 4° C. using a French pressure cell (1,000 psi). After centrifugation (10,000 g) to remove insoluble debris, the supernatant was incubated on ice with buffer-equilibrated Talon resin (Clontech) on an orbital shaker (60 rpm) for 60 minutes. The protein-charged resin was washed twice with 10 mL of cold resuspension buffer containing 2.5 mM imidazole, and proteins were eluted stepwise with increasing concentrations (10 to 200 mM) of imidazole in resuspension buffer. Total proteins from a 40 mM imidazole elution were desalted using a PD-10 column (EMD Millipore) and resuspension buffer free of imidazole. Recombinant proteins were analyzed by SDS-PAGE to assess yield and purity, and immunoblot analyses were conducted using α-His primary antibodies and goat-anti-mouse, horseradish peroxidase-conjugated secondary antibodies. Total protein concentration was determined using BCA Protein Assay kit (Thermo Scientific). Calculated protein concentrations were adjusted on gel densitometry. […] Specifically, standard enzyme reactions consisted of 50 mM Tris pH 8.5, 10 v/v glycerol, 1% w/v polyvinylpyrrolidone, 5 mM dithiothreitol, 1 mM alkaloid substrate, 1 mM SAM (S-adenosylmethionine) and 100 μg/mL purified NMT protein in a total of 100 μl reaction volume. Reactions were incubated for 4 h at 37° C., and stopped via 1) basification of the reaction mixture to pH 10-11, and 2) immediate addition of 1 mL ethyl acetate. Quenched reactions were vortexed and centrifuged (10,000 rpm) to separate organic and aqueous phases, and organic phase was carefully drawn off, placed in a new tube, reduced to dryness under vacuum, and resuspended in 500 μL of Solvent A (10 mM ammonium acetate pH 5.5, 5% v/v methanol). The resuspensions were centrifuged (10,000 rpm) prior to analysis by LC-MS to remove insoluble matter.
Ten μL sample was injected for LC-MS analysis using an Agilent 6410B triple quadrupole mass analyzer equipped with a 1200 Agilent HPCL system. Samples were fractionated using a previously described LC-ESI-MS/MS method [J. Chromatography B. 879:727, 2011] employing a Prodigy Phenyl-3 column (Phenomenex) which separated enantiomeric pairs (e.g. pseudoephedrine/ephedrine). Briefly, the HPLC gradient began as 95% Solvent A (Solvent B=100% methanol) for 1 minute at a flow rate of 0.2 ml/min, and decreased to 30% Solvent A/70% Solvent B over 19 minutes, then graded to 10% Solvent A/[…] over 0.5 minutes, then immediately returned to 100% Solvent A and equilibrated for 5 minutes. […] ESI and MS conditions were essentially the same as described [J. Chromatography B. 879:727, 2011].

[2] = tested on: plant-derived NMT; test: NMT activity assay with Ephedra sinica plant tissue extract; type: biochemical; settings: standard assay conditions, 4 hour assay, Ephedra sinica-derived protein
Protocol: For purification, bacterial pellets obtained following induction/incubation were resuspened in 10 mL of resuspension buffer (50 mM Tris pH 8.5, 10% v/v glycerol, 1% w/v polyvinylpyrrolidone, 5 mM dithiothreitol) and lysed at 4° C. using a French pressure cell (1,000 psi). After centrifugation (10,000 g) to remove insoluble debris, the supernatant was incubated on ice with buffer-equilibrated Talon resin (Clontech) on an orbital shaker (60 rpm) for 60 minutes. The protein-charged resin was washed twice with 10 mL of cold resuspension buffer containing 2.5 mM imidazole, and proteins were eluted stepwise with increasing concentrations (10 to 200 mM) of imidazole in resuspension buffer. Total proteins from a 40 mM imidazole elution were desalted using a PD-10 column (EMD Millipore) and resuspension buffer free of imidazole. Recombinant proteins were analyzed by SDS-PAGE to assess yield and purity, and immunoblot analyses were conducted using α-His primary antibodies and goat-anti-mouse, horseradish peroxidase-conjugated secondary antibodies. Total protein concentration was determined using BCA Protein Assay kit (Thermo Scientific). Calculated protein concentrations were adjusted on gel densitometry. Standard enzyme assays included approximately 100 μg/mL purified NMT protein, which was determined to be in the linear range of catalyst performance. […]

CNCC(O)c1ccc(O)cc1 (stereo not shown) [Synephrine, synephrine]
acceptance as substrate for N-methylation by NMT (FIG. 3) [1]: accepted as substrates

C[C@H](N)C(=O)c1ccccc1 [cathinone]
acceptance as substrate for N-methylation by NMT (FIG. 3) [1]: acting as substrate

CN[C@@H](C)[C@H](O)c1ccccc1 [ephedrine]
acceptance as substrate for N-methylation by NMT (FIG. 3) [1]: accepts
effectiveness as NMT substrate, absolute product quantification (FIG. 4) ([1]; standard assay conditions, product quantified with standard curves as ng alkaloid per μg protein per hour): somewhat lower

CC(N)C(O)c1ccccc1 (stereo not shown) [norephedrine]
conversion by plant-derived extract [2]: yielding ephedrine at comparable levels to E. coli-produced NMT

NCC(O)c1ccc(O)cc1 (stereo not shown) [octopamine]
acceptance as substrate for N-methylation by NMT (FIG. 3) [1]: accepted as substrates

CN[C@@H](C)[C@@H](O)c1ccccc1 [pseudoephedrine]
acceptance as substrate for N-methylation by NMT (FIG. 3) [1]: accepts
